Measured values: patent publication US20260345619A1 (Principia Biopharma Inc., priority 2023, published 2026)

Test: Pre-bronchodilator FEV1 and percent predicted FEV1 by spirometry, change from baseline
Type: in vivo, human
Conditions: 400 mg TID, Week 12
Description: Spirometry is a standard test to measure patients' lung function.
The primary endpoint was the proportion of patients with LOAC. The key secondary endpoint for the study was change in pre-bronchodilator FEV1 from baseline at EOT.
Reversibility is defined as an increase of the absolute FEV1 after administration of bronchodilator and is measured by spirometry as postbronchodilator increase in FEV1 in percent of the prebronchodilator FEV1. After spirometry for measuring prebronchodilator FEV1, participants were to receive 2-4 puffs of albuterol/salbutamol or levalbuterol/levosalbutamol from a primed MDI. The postbronchodilator spirometry may have been repeated several times within 30 minutes after administration of bronchodilator. Alternatively, and only if it was consistent with usual office practice (to be documented), reversibility may have been performed using inhalation of nebulized albuterol/salbutamol or levalbuterol/levosalbutamol.
Secondary endpoints included pre-bronchodilator FEV1 change from baseline at EOT, ACQ-5 score change from baseline, and AQLQ score change from baseline. Other secondary and exploratory endpoints are described in Table 2.

[1] = baseline FEV1 <2.1955 L (median)
[2] = baseline FEV1 reversibility <12%
[3] = baseline FEV1 reversibility ≥12%
[4] = baseline FEV1 ≥2.1955 L (median)

## CC(C)(C=C(C#N)C(=O)N1CCC[C@@H](n2nc(-c3ccc(Oc4ccccc4)cc3F)c3c(N)ncnc32)C1)N1CCN(C2COC2)CC1 (mixture of isomers) [rilzabrutinib, (R)-2-[3-[4-amino-3-(2-fluoro-4-phenoxy-phenyl)pyrazolo[3,4-d]pyrimidin-1-yl]piperidine-1-carbonyl]-4-methyl-4-[4-(oxetan-3-yl)piperazin-1-yl]pent-2-enenitrile]
Asthma onset age ≥12-<18 years
  Pre-bronchodilator FEV1 change from baseline, LS Mean Diff vs. placebo: -0.40 L
  Pre-bronchodilator FEV1 change from baseline, Mean: -0.01 L
Asthma onset age ≥18-<40 years
  Pre-bronchodilator FEV1 change from baseline, LS Mean: -0.18 L
  Pre-bronchodilator FEV1 change from baseline, LS Mean Diff vs. placebo: -0.08 L
  Pre-bronchodilator FEV1 change from baseline, Mean: -0.17 L
Asthma onset age ≥18 years
  Pre-bronchodilator FEV1 change from baseline, LS Mean: -0.10 L
  Pre-bronchodilator FEV1 change from baseline, LS Mean Diff vs. placebo: -0.02 L
  Pre-bronchodilator FEV1 change from baseline, Mean: -0.14 L
Asthma onset age ≥40 years
  Pre-bronchodilator FEV1 change from baseline, LS Mean: 0.01 L
  Pre-bronchodilator FEV1 change from baseline, LS Mean Diff vs. placebo: 0.06 L
  Pre-bronchodilator FEV1 change from baseline, Mean: -0.07 L
Atopic medical conditions: No
  Pre-bronchodilator FEV1 change from baseline, LS Mean: -0.15 L
  Pre-bronchodilator FEV1 change from baseline, LS Mean Diff vs. placebo: -0.11 L
  Pre-bronchodilator FEV1 change from baseline, Mean: -0.18 L
Atopic medical conditions: Yes
  Pre-bronchodilator FEV1 change from baseline, LS Mean: -0.12 L
  Pre-bronchodilator FEV1 change from baseline, LS Mean Diff vs. placebo: -0.04 L
  Pre-bronchodilator FEV1 change from baseline, Mean: -0.09 L
Background ICS dose High
  Pre-bronchodilator FEV1 change from baseline, LS Mean: -0.13 L
  Pre-bronchodilator FEV1 change from baseline, LS Mean Diff vs. placebo: -0.07 L
  Pre-bronchodilator FEV1 change from baseline, Mean: -0.13 L
Background ICS dose Medium
  Pre-bronchodilator FEV1 change from baseline, LS Mean: -0.15 L
  Pre-bronchodilator FEV1 change from baseline, LS Mean Diff vs. placebo: -0.10 L
  Pre-bronchodilator FEV1 change from baseline, Mean: -0.18 L
Baseline ACQ-5 >2
  Pre-bronchodilator FEV1 change from baseline, LS Mean: -0.15 L
  Pre-bronchodilator FEV1 change from baseline, LS Mean Diff vs. placebo: -0.16 L
  Pre-bronchodilator FEV1 change from baseline, Mean: -0.17 L
Baseline ACQ-5 ≤2
  Pre-bronchodilator FEV1 change from baseline, LS Mean: -0.12 L
  Pre-bronchodilator FEV1 change from baseline, LS Mean Diff vs. placebo: -0.01 L
  Pre-bronchodilator FEV1 change from baseline, Mean: -0.10 L
Baseline BMI <25 kg/m^2
  Pre-bronchodilator FEV1 change from baseline, LS Mean: -0.19 L
  Pre-bronchodilator FEV1 change from baseline, LS Mean Diff vs. placebo: -0.16 L
  Pre-bronchodilator FEV1 change from baseline, Mean: -0.21 L
Baseline BMI ≥25-<30 kg/m^2
  Pre-bronchodilator FEV1 change from baseline, LS Mean: -0.11 L
  Pre-bronchodilator FEV1 change from baseline, LS Mean Diff vs. placebo: -0.05 L
  Pre-bronchodilator FEV1 change from baseline, Mean: -0.14 L
Baseline BMI ≥30 kg/m^2
  Pre-bronchodilator FEV1 change from baseline, LS Mean: -0.11 L
  Pre-bronchodilator FEV1 change from baseline, LS Mean Diff vs. placebo: -0.07 L
  Pre-bronchodilator FEV1 change from baseline, Mean: -0.14 L
[1]
  Pre-bronchodilator FEV1 change from baseline, LS Mean: -0.03 L
  Pre-bronchodilator FEV1 change from baseline, LS Mean Diff vs. placebo: -0.09 L
  Pre-bronchodilator FEV1 change from baseline, Mean: -0.05 L
[2]
  Pre-bronchodilator FEV1 change from baseline, LS Mean: -0.16 L
  Pre-bronchodilator FEV1 change from baseline, LS Mean Diff vs. placebo: -0.12 L
  Pre-bronchodilator FEV1 change from baseline, Mean: -0.18 L
[3]
  Pre-bronchodilator FEV1 change from baseline, LS Mean: -0.01 L
  Pre-bronchodilator FEV1 change from baseline, LS Mean Diff vs. placebo: -0.02 L
  Pre-bronchodilator FEV1 change from baseline, Mean: 0.00 L
[4]
  Pre-bronchodilator FEV1 change from baseline, LS Mean: -0.22 L
  Pre-bronchodilator FEV1 change from baseline, LS Mean Diff vs. placebo: -0.09 L
  Pre-bronchodilator FEV1 change from baseline, Mean: -0.21 L
Baseline FeNO <25 ppb
  Pre-bronchodilator FEV1 change from baseline, LS Mean: -0.16 L
  Pre-bronchodilator FEV1 change from baseline, LS Mean Diff vs. placebo: -0.12 L
  Pre-bronchodilator FEV1 change from baseline, Mean: -0.19 L
Baseline FeNO <35 ppb
  Pre-bronchodilator FEV1 change from baseline, LS Mean: -0.14 L
  Pre-bronchodilator FEV1 change from baseline, LS Mean Diff vs. placebo: -0.09 L
  Pre-bronchodilator FEV1 change from baseline, Mean: -0.18 L
Baseline FeNO ≥25 ppb
  Pre-bronchodilator FEV1 change from baseline, LS Mean: -0.09 L
  Pre-bronchodilator FEV1 change from baseline, LS Mean Diff vs. placebo: -0.04 L
  Pre-bronchodilator FEV1 change from baseline, Mean: -0.09 L
Baseline FeNO ≥35 ppb
  Pre-bronchodilator FEV1 change from baseline, LS Mean: -0.07 L
